In US20230321122A1, “ACTIVE AGENT MODULATING THE ACTIVITY OF AN ION CHANNEL FOR USE IN HAIR GROWTH REGULATION” (CUTANEON - Skin & Hair Innovations GmbH, priority 2020, published 2023):

Assays:
human hair follicles [1] = assay: Quantitative PCR gene expression in compound-treated human hair follicles; type: cell-based; details: 6 hours, vs vehicle
Procedure: Total RNA was isolated using PICOPURE® RNA Isolation Kit (Applied BioSystems) according to the manufacturer's protocol. After isolation, 100 ng of total RNA was reverse-transcribed into cDNA using a TETRO® cDNA synthesis kit (Bioline). Quantitative-PCR was performed using the StepOne Plus real time PCR system (Applied Biosystems) using TAQMAN® fast advanced master mix and TAQMAN® probes for LEF1, IGF1, TGFB2 AND SFRP1 (Applied Biosystems). The amount of the aforementioned transcripts was normalized to the expression of reference gene (GAPDH) using the ΔΔCt method. Results were performed in triplicate for each experiment.
For gene expression analysis, human hair follicles were microdissected as above and treated with 2-Hep (12.5 uM) for 6 hours. Following the treatment, total RNA was isolated and processed for cDNA synthesis as above. Quantitate PCR was performed using TAQMAN® assay with probes for TGFB2 and AXIN2 (Applied Biosystems).
For gene expression analysis, human hair follicles were microdissected as above and treated with TPPO (150 uM) for 6 hours. Following the treatment, total RNA was isolated and processed for cDNA synthesis as above. Quantitate PCR was performed using TAQMAN® assay with probes for IGF1, FGF7 and TGFB2 (Applied Biosystems).

human hair follicles [2] = assay: Human hair follicle organ culture, hair cycle staging; type: cell-based; details: for hair cycle stage of hair follicles (anagen) vs vehicle: 12.5 (unit not given), day 3 and day 6, FIGS. 8, 9
Procedure: Human anagen hair follicles were isolated from the skin of males undergoing hair transplantation with written informed consent. Microdissected hair follicles were amputated at the level of dermal-subcutaneous junction and equilibrated in Williams' E medium (WEM) (Life Technologies) supplemented with 2 mM L-glutamine (Life Technologies), 10 ng/ml hydrocortisone, 10 μg/ml insulin, and antibiotics (all from Sigma-Aldrich). After 24 hours, growing undamaged anagen hair follicles were selected for treatment with DMP Human hair follicles were cultured in presence of DMP (12.5 The culture medium was changed every two days with addition of DMP. Hair follicles were photographed and percentage of hair follicles at different stages of hair cycle were calculated at day 3 and day 6 of the treatment and compared to vehicle.
Human anagen hair follicles were isolated from the skin of males undergoing hair transplantation with written informed consent. […] After 24 hours, growing undamaged anagen hair follicles were selected for treatment with 2-Hep (12.5 The culture medium was changed every two days with addition of 2-Hep. Hair follicles were photographed and percentage of hair follicles at different stages of hair cycle were calculated at day 3 and day 6 of the treatment and compared to vehicle.
Human anagen hair follicles were isolated from the skin of males undergoing hair transplantation with written informed consent. […] After 24 hours, growing undamaged anagen hair follicles were selected for treatment with human hair follicles were cultured in presence of TPPO (150 The culture medium was changed every two days with addition of TPPO. Hair follicles were photographed and percentage of hair follicles at different stages of hair cycle were calculated at day 3 and day 6 of the treatment and compared to vehicle.

SMILES	expression of AXIN2 (human hair follicles [1]; 12.5 uM, FIG. 10)	expression of TGFB2 (human hair follicles [1]; 12.5 uM, FIG. 10)	hair cycle stage of hair follicles (anagen) vs vehicle (human hair follicles [2])	TGFB2 transcript (human hair follicles [1]; 150 uM, FIG. 12)	expression level of FGF7 (human hair follicles [1]; 150 uM, FIG. 12)	expression level of IGF1 (human hair follicles [1]; 150 uM, FIG. 12)	hair cycle stage of hair follicles (catagen) vs vehicle (human hair follicles [2]; 150 (unit not given), day 3 and day 6, FIG. 11)
CCCCCC(C)=O [2-Hep, 2-heptanone]	up-regulated	down-regulated	prolongs anagen	–	–	–	–
Cc1cnc(C)cn1 [DMP, 2,5-dimethylpyrazine]	–	–	prolongs anagen	–	–	–	–
O=P(c1ccccc1)(c1ccccc1)c1ccccc1 [TPPO, triphenylphosphine oxide]	–	–	–	up-regulated	significantly down-regulated	significantly down-regulated	promotes catagen
